Reference: patent US20230381142A1, “ANTILEISHMANIAL COMPOUNDS, COMPOSITIONS AND USE THEREOF” (TRUSTEES OF BOSTON UNIVERSITY, priority 2022, published 2023)

Tested on: L. donovani intracellular amastigotes in B10R cells
Test: UCSD L. donovani infection assay (Assay Conditions D)
Assay type: cell-based
Conditions: B10R cells; for L. donovani amastigotes EC75 (B10R cells): footnote d
Procedure: (§1) Assay Conditions D: B10R cells (CVCL_0155) were seeded at 300 cells/well, and L. donovani WT promastigotes in stationary phase (7th day after passage) were added at 6,000 parasites/well (ratio of 20 parasites/cell). Both cells and parasites were seeded in DMEM High-Glucose medium (Gibco, cat. no. 11995065) containing 5% Fetal Bovine Serum (Sigma-Aldrich, cat. no. F2442) and 1% Penicillin-Streptomycin (Gibco, cat. no. 15140122). Cells and parasites were incubated in the presence of the compounds for 72 h at 37° C. and 5% C02. Plates were then fixed with 4% formaldehyde solution for at least 1 h, then washed with 1×PBS and stained with 5 μg/mL DAPI. Plates were read using an ImageXpress microscope (Molecular Devices) and analyzed by MetaXpress software (Molecular Devices) using a custom module optimized for this assay. […] Compounds were tested in a 10-point 2-fold serial dilution in 3 technical replicates, and 2 biological replicates. After 72 h, plates were fixed and stained with DAPI as described above. Images were acquired on an ImageXpress microscope, and analyzed using the MetaXpress custom module.
as §1, with “Compounds were obtained as 0.2 μmoles of dried film for primary single point screening. Each compound was diluted in DMSO to 10 μM final testing concentration. These compounds were tested in 2 biological replicates. The compounds were pre-spotted onto 384-well assay plates in single concentration.” for “Assay Conditions D:”, “CO2.” for “C02.”, “module. The DRCs were plotted, half-effective concentration (EC50) and half-cytotoxic concentration (CC50) were calculated using GraphPad Prism Software, version 6.05 (GraphPad Software, San Diego, CA).” for “module.”

Question: How did the “L. donovani amastigotes EC75 (μM, B10R cells)” value turn out when `CCn1cc(N2C(=O)c3[nH]nc(CC(C)C)c3C2c2ccc(F)cc2Cl)cn1` (stereo not shown) [BUCMD00665] was run?
Answer: >10 µM

Question: `CCn1cc(N2C(=O)c3[nH]nc(CC(C)C)c3C2c2ccc(Cl)cc2F)cn1` (stereo not shown) [BUCMD00666] was tested. Which “L. donovani amastigotes EC75 (μM, B10R cells)” value did it give?
Answer: >10 µM

Question: Which “L. donovani amastigotes EC75 (μM, B10R cells)” value does the source give for `CCn1cc(N2C(=O)c3[nH]nc(CC(C)C)c3C2c2ccccc2C)cn1` (stereo not shown) [BUCMD00667] here?
Answer: >10 µM

Question: How did the “L. donovani amastigotes EC75 (μM, B10R cells)” value turn out when `CCn1cc(N2C(=O)c3[nH]nc(CC(C)C)c3C2c2ccccc2Cl)cn1` (stereo not shown) [BUCMD00668] was run?
Answer: 5.8 µM

Question: Which “L. donovani amastigotes EC75 (B10R cells)” value does the source give for `CCn1cc(N2C(=O)c3[nH]nc(CC(C)C)c3C2c2ccc(F)cc2Br)cn1` (stereo not shown) [BUCMD00669] here?
Answer: 0.7 µM

Question: Which “L. donovani amastigotes EC75 (μM, B10R cells)” value does the source give for `CCn1cc(N2C(=O)c3[nH]nc(CC(C)C)c3C2c2ccc(F)cc2F)cn1` (stereo not shown) [BUCMD00670] here?
Answer: >10 µM

Question: For `CCn1cc(N2C(=O)c3[nH]nc(CC(C)C)c3C2c2sccc2C)cn1` (stereo not shown) [BUCMD00672], which “L. donovani amastigotes EC75 (μM, B10R cells)” value is on record?
Answer: 6.9 µM

Question: `CC(C)Cc1n[nH]c2c1C(c1ccc(F)cc1Cl)N(c1cnn(C(C)C)c1)C2=O` (stereo not shown) [BUCMD00674] was tested. Which “L. donovani amastigotes EC75 (μM, B10R cells)” value did it give?
Answer: 10.0 µM

Question: `CC(C)Cc1n[nH]c2c1C(c1ccc(Cl)cc1F)N(c1cnn(C(C)C)c1)C2=O` (stereo not shown) [BUCMD00675] was tested. Which “L. donovani amastigotes EC75 (μM, B10R cells)” value did it give?
Answer: >10 µM

Question: `CC(C)Cc1n[nH]c2c1C(c1ccccc1Cl)N(c1cnn(C(C)C)c1)C2=O` (stereo not shown) [BUCMD00676] was tested. Which “L. donovani amastigotes EC75 (μM, B10R cells)” value did it give?
Answer: >10 µM

Question: `Cc1ccccc1C1c2c(CC(C)C)n[nH]c2C(=O)N1c1cnn(C(C)C)c1` (stereo not shown) [BUCMD00677] was tested. Which “L. donovani amastigotes EC75 (μM, B10R cells)” value did it give?
Answer: >10 µM

Question: Which “L. donovani amastigotes EC75 (μM, B10R cells)” value does the source give for `CC(C)Cc1n[nH]c2c1C(c1ccc(F)cc1F)N(c1cnn(C(C)C)c1)C2=O` (stereo not shown) [BUCMD00678] here?
Answer: >10 µM

Question: For `CC(C)Cc1n[nH]c2c1C(c1ccccc1C(F)(F)F)N(c1cnn(C(C)C)c1)C2=O` (stereo not shown) [BUCMD00679], which “L. donovani amastigotes EC75 (μM, B10R cells)” value is on record?
Answer: 10.4 µM

Question: `Cc1ccsc1C1c2c(CC(C)C)n[nH]c2C(=O)N1c1cnn(C(C)C)c1` (stereo not shown) [BUCMD00680] was tested. Which “L. donovani amastigotes EC75 (μM, B10R cells)” value did it give?
Answer: >10 µM

Question: For `Cc1cc(F)ccc1C1c2c(CC(C)C)n[nH]c2C(=O)N1c1cncc(F)c1` (stereo not shown) [BUCMD00693], which “L. donovani amastigotes EC75 (μM, B10R cells)” value is on record?
Answer: >10 µM

Question: For `CC(C)Cc1n[nH]c2c1C(c1ccc(Cl)cc1F)N(c1cncc(F)c1)C2=O` (stereo not shown) [BUCMD00695], which “L. donovani amastigotes EC75 (B10R cells)” value is on record?
Answer: 0.5 µM

Question: For `CC(C)Cc1n[nH]c2c1C(c1ccccc1Cl)N(c1cncc(F)c1)C2=O` (stereo not shown) [BUCMD00696], which “L. donovani amastigotes EC75 (μM, B10R cells)” value is on record?
Answer: >10 µM

Question: For `Cc1ccccc1C1c2c(CC(C)C)n[nH]c2C(=O)N1c1cncc(F)c1` (stereo not shown) [BUCMD00697], which “L. donovani amastigotes EC75 (μM, B10R cells)” value is on record?
Answer: 2.6 µM

Question: With `CC(C)Cc1n[nH]c2c1C(c1ccc(F)cc1F)N(c1cncc(F)c1)C2=O` (stereo not shown) [BUCMD00698] as the molecule, how does the “L. donovani amastigotes EC75 (μM, B10R cells)” value read?
Answer: 2.3 µM

Question: With `Cc1ccsc1C1c2c(CC(C)C)n[nH]c2C(=O)N1c1cncc(F)c1` (stereo not shown) [BUCMD00702] as the molecule, how does the “L. donovani amastigotes EC75 (μM, B10R cells)” value read?
Answer: 7.3 µM

Question: For `CC(C)Cc1n[nH]c2c1C(c1ccccc1F)N(c1ccc(C(=O)N3CCCC3)cc1)C2=O` (stereo not shown) [BUCMD00715], which “L. donovani amastigotes EC75 (μM, B10R cells)” value is on record?
Answer: >10 µM

Question: With `CC(C)Cc1n[nH]c2c1C(c1ccc(F)c(F)c1)N(c1ccc(C(=O)N3CCCC3)cc1)C2=O` (stereo not shown) [BUCMD00716] as the molecule, how does the “L. donovani amastigotes EC75 (μM, B10R cells)” value read?
Answer: >10 µM

Question: With `CC(C)Cc1n[nH]c2c1C(c1ccccc1Cl)N(c1ccc(N3CCN(C)CC3)nc1)C2=O` (stereo not shown) [BUCMD00720] as the molecule, how does the “L. donovani amastigotes EC75 (μM, B10R cells)” value read?
Answer: 5.1 µM

Question: `Cc1ccccc1C1c2c(CC(C)C)n[nH]c2C(=O)N1c1ccc(N2CCN(C)CC2)nc1` (stereo not shown) [BUCMD00721] was tested. Which “L. donovani amastigotes EC75 (μM, B10R cells)” value did it give?
Answer: 5.0 µM

Question: Which “L. donovani amastigotes EC75 (μM, B10R cells)” value does the source give for `Cc1cc(F)ccc1C1c2c(CC(C)C)n[nH]c2C(=O)N1c1ccc(C(=O)N2CCCC2)cc1` (stereo not shown) [BUCMD00726] here?
Answer: >10 µM
